This is an account of results in PubChem BioAssay (NCI).

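Grown in 96-well plates, cells were treated for 48 hours with each compound at five concentrations. Insufficient inhibition: endpoint recorded as highest concentration tested. Here, GI50 denotes the concentration required for 50% inhibition of growth. The concentration for full growth arrest is given as TGI.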

For one assay, the system named is OVCAR-4 ovarian. The assay is described as follows: inhibition of tumour cell growth, NCI panel, 48 h.
As for `CCCCCCCCCCCCCCCCCC[n+]1ccc2c(C)c3c(c(C)c2c1)c1cc(O)ccc1n3CC`, the GI50 is 0.954 µM and the TGI was found to be 12 µM.
On the same counts, the results for `CCc1ccc2c(c1)N(CCO)C1=C(C(=O)OC1)C2c1cccc(Br)c1` (stereo unspecified) are 0.738 µM and 17.3 µM.
In the same order, the values of `CN(C)CCCn1c(=O)c2ccccc2c2ccccc21` are 22.3 µM and 70.5 µM.
On the same counts, the results for `O=c1[nH]c(=O)n(C2CC(O)C(COP(=O)(OCc3ccc([N+](=O)[O-])o3)N(CCCCCl)CC(O)CO)O2)cc1F` (stereo unspecified) are above 100 µM and above 100 µM.
`O=C1OC(=O)C(=C\c2ccc3c(c2)OCO3)/C1=C/c1ccc2c(c1)OCO2`: the TGI was above 100 µM.
As to `CC(C)NCCCn1c(Sc2cc3c(cc2I)OCO3)nc2c(N)ncnc21`, the GI50 is above 33.3 µM and the TGI was above 100 µM.
In turn, `CC1(O)C=CC(=O)C=C1` gave a TGI above 91.1 µM.
Take `CN1C(=O)N(C)C2C1NN=c1s/c(=C\c3ccc(C(F)(F)F)cc3)c(=O)n12` (stereo unspecified): the GI50 was above 100 µM and the TGI is above 100 µM.

Another assay has as its system EKVX NSCLC. In words: inhibition of tumour cell growth, NCI panel, 48 h.
Consider `Fc1ccc(C2SCc3nc4ccccc4n32)c(F)c1` (stereo unspecified), for which the TGI was above 100 µM.
For `Fc1ccc(/C=N/n2c(-c3ccc(F)c(Cl)c3)nn(CNc3ccccc3C(F)(F)F)c2=S)cc1`, the GI50 was 37.2 µM and the TGI was above 100 µM.
Turning to `CN[C@@H](C)C(=O)N[C@H](C(=O)N1CCC[C@H]1C(=O)Nc1sc(-c2ncco2)nc1-c1ccccc1)C1CCCCC1`, the GI50 was 42.9 µM and the TGI was above 100 µM.
On the same counts, the results for `CC(=O)OC12C=C(C)C(C(C)C1)C1C(=O)N(CCN3CCOCC3)C(=O)C12` (stereo unspecified) are above 100 µM and above 100 µM.
On the same counts, the results for `CC1=C2[C@@H](CC1)[C@]1(C)O[C@@](c3ccccc3)(C[C@H]1OC(=O)CO)[C@H]2OC(=O)/C=C/c1ccccc1` are 7.99 µM and 41.4 µM.
`NC(=O)c1csc(C2OC(CO)C(O)C2O)n1` (stereo unspecified) returned a TGI of 5940 µM.
On to `CCCN(CCS(C)(=O)=O)Cc1ccc(-c2ccc3ncnc(Nc4ccc(OCc5cccc(F)c5)c(Cl)c4)c3c2)o1`, for which the GI50 was 0.195 µM and the TGI is above 25 µM.
In the same order, the values of `CC(C)C[C@H](NC(=O)CNC(=O)c1cc(Cl)ccc1Cl)B1OC(=O)CC(CC(=O)O)(C(=O)O)O1` (stereo partly specified) are 0.369 µM and 30.8 µM.
`CCCCCCCCCCCCCCCCCC[n+]1ccc2c(C)c3c(c(C)c2c1)c1cc(O)ccc1n3CC`: the GI50 was 2.15 µM and the TGI is 9.93 µM.
On the same counts, the results for `CCc1ccc2c(c1)N(CCO)C1=C(C(=O)OC1)C2c1cccc(Br)c1` (stereo unspecified) are 2.45 µM and 20.6 µM.
On the same counts, the results for `CN(C)CCCn1c(=O)c2ccccc2c2ccccc21` are 13.6 µM and 44.9 µM.
In the same order, the values of `O=c1[nH]c(=O)n(C2CC(O)C(COP(=O)(OCc3ccc([N+](=O)[O-])o3)N(CCCCCl)CC(O)CO)O2)cc1F` (stereo unspecified) are above 28.2 µM and above 100 µM.
As for `O=C1OC(=O)C(=C\c2ccc3c(c2)OCO3)/C1=C/c1ccc2c(c1)OCO2`, the TGI was above 100 µM.
With `CC(C)NCCCn1c(Sc2cc3c(cc2I)OCO3)nc2c(N)ncnc21`, the GI50 was 2.53 µM and the TGI was above 100 µM.
`CC1(O)C=CC(=O)C=C1` returned a TGI above 100 µM.
Consider `CN1C(=O)N(C)C2C1NN=c1s/c(=C\c3ccc(C(F)(F)F)cc3)c(=O)n12` (stereo unspecified), for which the GI50 was 4.17 µM and the TGI was above 100 µM.

For the next assay, the system named is M14 melanoma. In words: inhibition of tumour cell growth, NCI panel, 48 h.
`Fc1ccc(C2SCc3nc4ccccc4n32)c(F)c1` (stereo unspecified): the TGI was above 100 µM.
`Fc1ccc(/C=N/n2c(-c3ccc(F)c(Cl)c3)nn(CNc3ccccc3C(F)(F)F)c2=S)cc1`: the GI50 is 43.1 µM and the TGI was above 100 µM.
Turning to `CN[C@@H](C)C(=O)N[C@H](C(=O)N1CCC[C@H]1C(=O)Nc1sc(-c2ncco2)nc1-c1ccccc1)C1CCCCC1`, the GI50 is 18.5 µM and the TGI was 36.7 µM.
In the same order, the values of `CC(=O)OC12C=C(C)C(C(C)C1)C1C(=O)N(CCN3CCOCC3)C(=O)C12` (stereo unspecified) are above 100 µM and above 100 µM.
Take `CC1=C2[C@@H](CC1)[C@]1(C)O[C@@](c3ccccc3)(C[C@H]1OC(=O)CO)[C@H]2OC(=O)/C=C/c1ccccc1`: the GI50 was 15.8 µM and the TGI stood at 39.1 µM.
In the same order, the values of `NC(=O)c1csc(C2OC(CO)C(O)C2O)n1` (stereo unspecified) are 10.2 µM and 5650 µM.
For the compound `CCCN(CCS(C)(=O)=O)Cc1ccc(-c2ccc3ncnc(Nc4ccc(OCc5cccc(F)c5)c(Cl)c4)c3c2)o1`, the GI50 was above 25 µM and the TGI was above 25 µM.
Regarding `CC(C)C[C@H](NC(=O)CNC(=O)c1cc(Cl)ccc1Cl)B1OC(=O)CC(CC(=O)O)(C(=O)O)O1` (stereo partly specified), the GI50 was 0.034 µM and the TGI came out at 0.143 µM.
In the same order, the values of `CCCCCCCCCCCCCCCCCC[n+]1ccc2c(C)c3c(c(C)c2c1)c1cc(O)ccc1n3CC` are 1.43 µM and 3.34 µM.
For the compound `CCc1ccc2c(c1)N(CCO)C1=C(C(=O)OC1)C2c1cccc(Br)c1` (stereo unspecified), the GI50 is 0.525 µM and the TGI stood at 10.8 µM.
Turning to `CN(C)CCCn1c(=O)c2ccccc2c2ccccc21`, the GI50 is 14.4 µM and the TGI came out at 29.6 µM.
In the same order, the values of `O=c1[nH]c(=O)n(C2CC(O)C(COP(=O)(OCc3ccc([N+](=O)[O-])o3)N(CCCCCl)CC(O)CO)O2)cc1F` (stereo unspecified) are 0.365 µM and 2.23 µM.
`O=C1OC(=O)C(=C\c2ccc3c(c2)OCO3)/C1=C/c1ccc2c(c1)OCO2` returned a TGI above 100 µM.
Consider `CC(C)NCCCn1c(Sc2cc3c(cc2I)OCO3)nc2c(N)ncnc21`, for which the GI50 was 0.233 µM and the TGI was 20.9 µM.
`CC1(O)C=CC(=O)C=C1` came in with a TGI of 41.6 µM.
Regarding `CN1C(=O)N(C)C2C1NN=c1s/c(=C\c3ccc(C(F)(F)F)cc3)c(=O)n12` (stereo unspecified), the GI50 was 1.36 µM and the TGI is above 100 µM.
